Results reported in ChEMBL document CHEMBL1201862, “PubChem BioAssay data set” (2004).
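Assay format: 96-well plates, 48-hour exposure. At the GI50, growth is halved.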 The source made the active and inactive calls. Rule as the data show it: active = GI50 up to about 1.1 µM and inactive = higher.

What was measured:
Assay in all cases: NCI anticancer screen, dose series, 48 h
[1] = test system: 786-0
[2] = test system: A498
[3] = test system: CAKI-1
[4] = test system: DMS-273
[5] = test system: EKVX
[6] = test system: HCT-15
[7] = test system: HOP-92
[8] = test system: K562
[9] = test system: MOLT-4
[10] = test system: Malme-3M
[11] = test system: NCI-H226
[12] = test system: NCI-H23
[13] = test system: OVCAR-8
[14] = test system: SF-268
[15] = test system: SF-295
[16] = test system: SK-MEL-28
[17] = test system: SK-OV-3
[18] = test system: Hs-578T
[19] = test system: MDA-MB-231
[20] = test system: PC-3

Compound	GI50 [1]	GI50 [2]	GI50 [3]	GI50 [4]	GI50 [5]	GI50 [6] [µM]	GI50 [7]	GI50 [8]	GI50 [9]	GI50 [10]	GI50 [11]	GI50 [12]	GI50 [13]	GI50 [14]	GI50 [15]	GI50 [16]	GI50 [17]	GI50 [18]	GI50 [19]	GI50 [20]
O=C1CCC(=O)c2cc(Br)ccc2N1	> 100 µM (inactive)	> 100 µM (inactive)	> 100 µM (inactive)	> 100 µM (inactive)	> 63.2 µM (inactive)	> 100	> 100 µM (inactive)	> 100 µM (inactive)	> 100 µM (inactive)	> 100 µM (inactive)	> 100 µM (inactive)	> 100 µM (inactive)	> 100 µM (inactive)	> 100 µM (inactive)	> 100 µM (inactive)	> 100 µM (inactive)	> 100 µM (inactive)	–	–	–
CC1CCC2c3c([nH]c4ccccc34)C3C(=O)N(c4ccccc4)C(=O)C3C2C1 (stereo unspecified)	13.3 µM (inactive)	43.8 µM (inactive)	> 250 µM (inactive)	40.6 µM (inactive)	> 250 µM (inactive)	> 250	11.1 µM (inactive)	46.8 µM (inactive)	25.4 µM (inactive)	54.3 µM (inactive)	32.1 µM (inactive)	34.4 µM (inactive)	43.5 µM (inactive)	22.9 µM (inactive)	15 µM (inactive)	> 250 µM (inactive)	10.1 µM (inactive)	–	–	–
CC(=O)Nc1ccc(/C=C/C(=O)c2sc(-c3cccnc3)nc2C)cc1	> 100 µM (inactive)	> 100 µM (inactive)	> 100 µM (inactive)	> 100 µM (inactive)	> 100 µM (inactive)	> 100	> 100 µM (inactive)	> 100 µM (inactive)	> 100 µM (inactive)	> 100 µM (inactive)	> 100 µM (inactive)	> 100 µM (inactive)	> 100 µM (inactive)	> 100 µM (inactive)	> 100 µM (inactive)	> 100 µM (inactive)	> 100 µM (inactive)	–	–	–
CC(=O)NC(CCCCN(Cc1ccccc1)C(=O)N(CCCl)N=O)C(=O)NCc1ccccc1 (stereo unspecified)	0.895 µM (active)	> 100 µM (inactive)	> 26.8 µM (inactive)	> 35.8 µM (inactive)	61.9 µM (inactive)	> 60.8	33 µM (inactive)	36.6 µM (inactive)	14.3 µM (inactive)	37.5 µM (inactive)	43.1 µM (inactive)	27.7 µM (inactive)	17.4 µM (inactive)	3.48 µM (inactive)	7.21 µM (inactive)	45.7 µM (inactive)	> 54.3 µM (inactive)	22.2 µM (inactive)	21.9 µM (inactive)	> 35.5 µM (inactive)
